The NIST ThermoML archive (doi:10.1016/j.jct.2014.12.006)
± gives the expanded uncertainty stated by the source.

Assay: mn = molality of the nth substance listed, in mol/kg
Conditions: 298.15 K, 102 kPa, Liquid, Vibrating tube method

CCCCCCCCCCCC[N+](C)(C)CC[N+](C)(C)CCCCCCCCCCCC.[Br-].[Br-] [1,2-bis(dimethyldodecylammonium)ethane dibromide] + O
Conditions	mass density [kg/m3]
m1 = 0.0005	997.078 ± 0.12
m1 = 0.00056	997.083 ± 0.12
m1 = 0.00065	997.091 ± 0.12
m1 = 0.0007	997.095 ± 0.12
m1 = 0.00079	997.103 ± 0.12
m1 = 0.00089	997.112 ± 0.12
m1 = 0.00095	997.117 ± 0.12
m1 = 0.00104	997.124 ± 0.12
m1 = 0.00107	997.126 ± 0.12
m1 = 0.00119	997.136 ± 0.12
m1 = 0.0013	997.144 ± 0.12
m1 = 0.00142	997.153 ± 0.12
m1 = 0.00168	997.172 ± 0.12

CCCCCCCCCCCCn1cc[n+](C)c1.[Br-] [1-dodecyl-3-methylimidazolium bromide] + O
Conditions	mass density [kg/m3]
m1 = 0.00525	997.226 ± 0.12
m1 = 0.00574	997.243 ± 0.12
m1 = 0.00615	997.258 ± 0.12
m1 = 0.007	997.288 ± 0.12
m1 = 0.00733	997.299 ± 0.12
m1 = 0.00816	997.329 ± 0.12
m1 = 0.00869	997.347 ± 0.12
m1 = 0.0092	997.365 ± 0.12
m1 = 0.01006	997.396 ± 0.12
m1 = 0.01063	997.412 ± 0.12
m1 = 0.01124	997.43 ± 0.12
m1 = 0.01196	997.451 ± 0.12
m1 = 0.01274	997.474 ± 0.12
m1 = 0.01356	997.498 ± 0.12
m1 = 0.01464	997.529 ± 0.12
m1 = 0.01526	997.545 ± 0.12
m1 = 0.01629	997.575 ± 0.12
m1 = 0.01707	997.595 ± 0.12
